Legend:
murine B cells = test: Murine B cell proliferation (CellTrace Violet, cell number) and class switch to IgG1 in vitro; format: cell-based, mouse
Protocol: Mouse B cells were isolated from pooled single cell suspensions of spleen and peripheral lymph nodes using CD19 Microbeads (Miltenyi) or Mouse B cell Isolation Kit (Stemcell Technologies). B cells were stimulated with LPS (10 μg/mL; Sigma-Aldrich) and recombinant IL-4 cytokine (10 ng/mL; Tonbo Bioscience) with or without SCD inhibitor SSI-4, and proliferation was measured by dilution of CellTrace Violet proliferation dye (Thermo Fisher Scientific). B cells were also stimulated with anti-IgM (10 μg/mL; Jackson ImmunoResearch), anti-CD40 (10 μg/mL; BioXcell) and IL-4 (10 ng/mL; Tonbo Bioscience), or TLR ligand CpG (2.5 μM; IDT), recombinant IL-4 and IL-5 (10 ng/mL; Tonbo Bioscience) cytokines. To test the function of monounsaturated and saturated fatty acids, B cells were activated in presence of exogenous fatty acid-BSA conjugate. Palmitoleic acid (NU-CHEK PREP, INC), palmitic acid (NU-CHEK PREP, INC), stearic acid (NU-CHEK PREP, INC) were conjugated with fatty acid free BSA (Sigma-Aldrich) as described elsewhere (Wang et al., Immunity 35:871-882 (2011)). Human B cells were activated with CpG OND2006 (2.5 μM; IDT), recombinant human cytokine IL-10 ([…]; Peprotech), IL-15 (10 ng/mL; Peprotech), IL-4 (10 ng/mL; Biolegend), IL-2 (10 unit/mL) and anti-human CD40 (1 μg/mL; BioXcell). Human B cell proliferation was measured by ^3[H]-thymidine incorporation (1 μCi/mL) (American Radiolabeled Chemicals). For analysis of surface markers, cells were stained in PBS containing 1% (w/v) bovine serum albumin on ice for 30 minutes, with anti-IgG1 (RMG1-1, Biolegend), anti-CD19 (ID3, Biolegend) anti-B220 (RA3-6B2, Biolegend), anti-CD4 (GK1.5, Biolegend), anti-CD8 (53-6.7, Biolegend), anti-CD25 (PC16, Biolegend), anti-GL7 (GL-7, Biolegend), anti-CD95 (Jo2, BD Biosciences), anti-CD138 (281-2, Biolegend), anti-IgD (11-26c.2a, Biolegend), anti-PD-1 (J43, ThermoFisher), anti-IgM (II/41, ThermoFisher). Antigen specific GC response was detected with tetramer NP-phycoerythrin conjugated with PE (Biosearch Technologies). CXCR5 was stained with biotinylated anti-CXCR5 (2G8) followed by staining with streptavidin-conjugated PE (both from BD Biosciences). Cell viability was assessed using the Fixable Dye Ghost 510 (Tonbo Bioscience) or Annexin V cell apoptosis kit with 7-AAD (ThermoFisher) following the manufacturer's protocol. Phosflow staining for phospho-S6 (S235/236) was performed using Phosflow Fix/Perm kit (BD Biosciences). Mitochondrial potential was measured by staining with 20 nM TMRM (ThermoFisher) following manufacturer's instructions. Flow cytometry was performed on the LSR II, LSR Fortessa (BD Biosciences) or Attune NxT (ThermoFisher) cytometers, and analysis was performed using FlowJo software (Tree Star).

activated mouse B cells = test: Transmission electron microscopy of autophagosomes in activated mouse B cells; format: cell-based; conditions: SSI-4 treated B cells
Protocol: Cells were fixed in Trumps fixative (pH 7.2) at 4° C. overnight, spun down and the supernatant removed. They were re-suspended in 2% agarose which was allowed to cool and solidify. The cells in agarose were then post-fixed in 1% OsO4, dehydrated through a graded series of ethanols and embedded in Spurr resin. One hundred nm […] ultra-thin sections were mounted on 200-mesh copper grids, post-stained with lead citrate, and observed under a JEOL JEM-1400 transmission electron microscope at 80 kV.

mice = test: Mice fed SSI-4 chow: serum fatty acids (GC-MS) and lymphocyte development; format: in vivo, mouse
GFP-LC3 = test: Flow cytometry of GFP-LC3 in activated B cells from GFP-LC3 reporter mouse; format: cell-based; conditions: SSI-4 ex vivo
Protocol: For analysis of surface markers, cells were stained in PBS containing 1% (w/v) bovine serum albumin on ice for 30 minutes, with anti-IgG1 (RMG1-1, Biolegend), anti-CD19 (ID3, Biolegend) anti-B220 (RA3-6B2, Biolegend), anti-CD4 (GK1.5, Biolegend), anti-CD8 (53-6.7, Biolegend), anti-CD25 (PC16, Biolegend), anti-GL7 (GL-7, Biolegend), anti-CD95 (Jo2, BD Biosciences), anti-CD138 (281-2, Biolegend), anti-IgD (11-26c.2a, Biolegend), anti-PD-1 (J43, ThermoFisher), anti-IgM (II/41, ThermoFisher). Antigen specific GC response was detected with tetramer NP-phycoerythrin conjugated with PE (Biosearch Technologies). CXCR5 was stained with biotinylated anti-CXCR5 (2G8) followed by staining with streptavidin-conjugated PE (both from BD Biosciences). Cell viability was assessed using the Fixable Dye Ghost 510 (Tonbo Bioscience) or Annexin V cell apoptosis kit with 7-AAD (ThermoFisher) following the manufacturer's protocol. Phosflow staining for phospho-S6 (S235/236) was performed using Phosflow Fix/Perm kit (BD Biosciences). Mitochondrial potential was measured by staining with 20 nM TMRM (ThermoFisher) following manufacturer's instructions. Flow cytometry was performed on the LSR II, LSR Fortessa (BD Biosciences) or Attune NxT (ThermoFisher) cytometers, and analysis was performed using FlowJo software (Tree Star).

[1] = LPS/IL-4 activated, fatty acid-BSA conjugate, no inhibitor

Row | Compound | rescue of proliferation defects caused by SCD inhibition (murine B cells; 100 nM SSI-4 plus exogenous 100 μM OA, 3 days, LPS/IL-4/IL-5, anti-IgM/anti-CD40/IL-4 or CpG/IL-4/IL-5) | rescue of proliferation and IgG1 class switch in SCD1/2 deficient B cells (murine B cells; B cells from Scd1 and Scd2 deficient mice, LPS/IL-4) | rescue of proliferation and IgG1 class switch upon SSI-4 treatment (murine B cells; LPS/IL-4, SSI-4 with exogenous fatty acid) | B cell proliferation, exogenous fatty acid alone (murine B cells; [1]) | IgG1 class switch, exogenous fatty acid alone (murine B cells; [1]) | autophagosome structures by transmission electron microscopy (activated mouse B cells) | IgG1 class switch (murine B cells; LPS/IL-4, SCD inhibitor SSI-4 alone) | proliferation of mouse B cells (CTV dilution) (murine B cells; LPS/IL-4 activated, SCD inhibitor alone) | CD25+ pre-B cells in bone marrow (mice; SSI-4 chow) | GC percentage and IgA expression in Peyer's patches (mice; SSI-4 chow) | composition of thymocytes (mice; SSI-4 chow) | number of peripheral B cells and CD4+ T cells (mice; SSI-4 chow) | pool of immature B cells and B cell precursors (CD19+ B220int) in bone marrow (mice; SSI-4 chow) | serum OA and PO concentration (mice; SSI-4 chow for 1 week, GC-MS) | frequency of mature B cells (CD19+IgMloIgD+) (mice; SSI-4 chow, spleen) | GFP-LC3 expression (MFI) (GFP-LC3)
1 | CCCCCCCC/C=C\CCCCCCCC(=O)O [OA, oleic acid] | able to rescue the proliferation defects | fully restored | fully restore both parameters | further enhanced | further enhanced | – | – | – | – | – | – | – | – | – | – | –
2 | CNC(=O)c1ccnc(NC(=O)N2CCC(Oc3ccccc3Cl)CC2)c1 [SSI-4, 2-{[4-(2-Chlorophenoxy)piperidine-1-carbonyl]amino}-N-methylpyridine-4-carboxamide] | – | – | – | – | – | increased structures with double layer membrane | strongly suppressed | capable of inhibiting B cell proliferation | significant reduction | modest reduction | unaffected | not affected | significant reduction | markedly reduced | slightly increased | higher LC3 expression
